Experimental data from US9561232B2, “Low dose noribogaine for treating nicotine addiction and preventing relapse of nicotine use” (priority 2014, dated 2017).
Entries after “also recorded” stand apart in the source; their conditions may differ. Read-outs that look alike come from different tables or passages of the source.

How the values were obtained:
habitual smoker = test: Low dose intranasal noribogaine on smoking craving; type: in vivo, human; conditions: nanogram amount absorbed intranasally, during a period of several hours
Description: A habitual smoker intranasally absorbed a nanogram amount of noribogaine hydrochloride. […] The patient was unaware during that period of any nicotine or smoking cravings.

nicotine dependent rats = test: Nicotine self-administration test; type: in vivo, Sprague-Dawley rats; conditions: for inactive lever press during nicotine self-administration: all treatments, repeated measure ANOVA, P>0.05
[1] = Ascending single oral dose pharmacokinetics of noribogaine in healthy volunteers (plasma, urine, LCMSMS); conditions: for mean AUC/24 hr / mean AUC/24: fasting conditions, serum
[2] = Treatment emergent adverse events in opioid-dependent participants
[3] = Pupillometry (pupillary miosis) in healthy volunteers; type: in vivo, human
Protocol: Pupillary miosis was assessed by pupillometry.

[4] = Cold pressor test in healthy volunteers; type: in vivo, human; conditions: ANOVA after adjusting for baseline
Protocol: Analgesic effect was assessed based on duration of hand immersion in ice water and on visual analog scale (VAS) pain scores upon hand removal from the water bath.

[5] = system: zebrafish during nicotine withdrawal; type: in vivo
Protocol: A total of 60 adult wild type short-fin zebrafish (˜50:50 male:female ratio) were used in this study. Fish were housed in groups of 20-30 fish per 40-L tank. Tanks were filled with filtered water and maintained at 25° C. Illumination (1000-1100 lx) was provided by ceiling-mounted fluorescent lights on a 12-h cycle (on: 6.00 h, off: 18.00 h) according to the standards of zebrafish care. All fish used in this study were experimentally naïve and fed Tetramin Tropical Flakes (Tetra USA, Blacksburg, Va.) twice a day. Following behavioral testing, the animals were euthanized in 500 mg/L Tricaine (Sigma-Aldrich, St. Louis, Mo.) buffered to pH=7.0. Animal experimentation in this study fully adhered to national and institutional guidelines and regulations.
A 1 mg/L dose of noribogaine (DMX1) was chosen based on pilot experiments and literature reports on effective doses other similar compounds. […] A standard 20-min pre-treatment time was chosen based on experience with a wide range of other neuroactive compounds and the results of pilot studies. This exposure time was also sufficient for provoking physiological (e.g., cortisol and c-fos) responses of zebrafish to multiple drugs. Drug exposure in this study was performed by submerging individual zebrafish in a 1-L plastic beaker for 20 min prior to the testing. The solution was regularly changed after each exposure, to ensure that each fish is exposed to a consistent concentration of noribogaine. Control fish were exposed to noribogaine-free water for the same treatment time, as described above.
Behavioral testing was performed between 11:00 and 15:00 h using tanks with water adjusted to the holding room temperature (25° C.). The study used the novel tank test (NTT) protocol. NTT represents one of the most commonly used neurophenotyping tests for adult zebrafish. To avoid the test battery or handling effects, each assay was performed once, on a separate individual naïve fish each time. Prior to testing, fish were pre-exposed individually in a 1-L plastic beaker for 20 min to either drug-treated or drug-free water. During testing, zebrafish behavior was recorded by two trained observers blind to the treatments, who manually scored different behavioral endpoints (inter- and intra-rater reliability in all experiments>0.85) with subsequent automated analysis of generated traces by Ethovision XT8.5 software (Noldus IT, Wageningen, Netherlands). The NTT, used to assess zebrafish anxiety and locomotion, was a 1.5-L trapezoidal tank (15 cm height×28 cm top×23 cm bottom×7 cm width; Aquatic Habitats, Apopka, Fla.) maximally filled with water and divided into two equal virtual horizontal portions by a line marking the outside walls. Fish were individually pre-exposed to water (water control), chronic nicotine (1 mg/L), repeated withdrawal from chronic nicotine (WD), and repeated withdrawal plus noribogaine (1 mg/L) for 20 min and tested in the standard 5-min NTT.
Zebrafish behavior was recorded by trained observers, scoring the latency to reach the top half of the tank(s), time spent in top(s), number of transitions to top, as well as the number and duration(s) of freezing bouts. Freezing was defined as a total absence of movement, except for the gills and eyes, for >2 s. Trials were also recorded to a computer using a USB webcam (2.0-megapixel, Gigaware, UK) and subsequently analyzed by Ethovision XT8.5, assessing distance traveled (m), velocity (m/s), and meandering endpoints. During manual observation, videos were recorded in MPEG1 format with the maximum sample rate 30 fps for each trial by auto-focusing 2.0 MP USB webcams, placed 25 cm in front of the tanks, and attached to laptop computers. Recorded videos were analyzed with Ethovision XT8.5 software. All environments were calibrated for each arena and the calibration axes were placed to designate the origin (0,0) at the center of each tank. […]

[6] = system: opioid-dependent participants; test: Efficacy in opioid-dependent participants: time to resumption of OST and COWS/OOWS/SOWS withdrawal scores; type: in vivo, human
Protocol: The efficacy of noribogaine in humans was evaluated in opioid-dependent participants in a randomized, placebo-controlled, double-blind trial. […] See U.S. application Ser. No. 14/214,157, filed Mar. 14, 2014 and Ser. No. 14/346,655, filed Mar. 21, 2014, which are incorporated herein by reference in their entireties.
Three cohorts of nine (9) subjects (6 administered noribogaine and 3 administered placebo in each cohort) were evaluated for tolerability, pharmacokinetics, and efficacy. Cohort 1 received a single dose of 60 mg noribogaine or placebo. Cohort 2 received a single dose of 120 mg noribogaine or placebo. Cohort 3 received a single dose of 180 mg noribogaine or placebo. […] Headaches were frequent in the placebo and 60 mg noribogaine treatment groups, but were attenuated in the 120 mg and 180 mg dose groups.
Patients were evaluated based on the Clinical Opiate Withdrawal Scale (COWS), Subjective Opiate Withdrawal Scale (SOWS), and Objective Opiate Withdrawal Scale (OOWS) scoring systems over the period of time between administration of noribogaine (or placebo) until resumption of OST. These scales are outlined in Guidelines for the Psychosocially Assisted Pharmacological Treatment of Opioid Dependence, World Health Organization, Geneva (2009), Annex 10, which is incorporated herein by reference in its entirety. The scales measure the intensity of withdrawal symptoms, based on clinical, subjective, and objective indicia.

[7] = Safety and tolerability of noribogaine in healthy humans
[8] = Pharmacokinetics in opioid-dependent patients (Phase IB study); conditions: 60, 120, 180 mg cohorts
[9] = QT interval evaluation in opioid-dependent participants; type: in vivo, human; conditions: 60, 120, 180 mg, first 24 hours post administration; correlated with serum concentration
Protocol: Patients' QT intervals were evaluated at regular time points throughout the study.

[10] = nicotine withdrawal + 1 mg/L, 20 min immersion, 5-min NTT
[11] = nicotine withdrawal + 1 mg/L, NTT
[12] = nicotine withdrawal + 1 mg/L, vs control, chronic nicotine and nicotine withdrawal groups
[13] = noribogaine in plasma, across dose groups 3-60 mg

## CC[C@@H]1C[C@H]2CC3c4[nH]c5ccc(O)cc5c4CCN(C2)C31.Cl [noribogaine hydrochloride]
Habitual smoker
  craving to smoke: any craving to smoke stopped

## c1cnc2cc3c(cc2n1)[C@@H]1CNC[C@H]3C1 [varenicline, Varenicline, reference compound]
Nicotine dependent rats
  inactive lever press during nicotine self-administration: no significant main effect of treatment

## CC[C@H]1C[C@@H]2C[C@H]3c4[nH]c5ccc(OC6OC(C(=O)O)C(O)C(O)C6O)cc5c4CCN(C2)[C@@H]13 (some centres unmarked) [Noribogaine glucuronide, noribogaine glucuronide]
[1]; 30 mg and 60 mg noribogaine dose groups
  time by which detected in plasma of all subjects: ≤ 0.75 h
[1]; both dose groups (30 mg, 60 mg)
  proportion of Cmax and AUC relative to noribogaine: 3-4%
[1]; noribogaine glucuronide in plasma, 30 mg and 60 mg dose groups
  time of peak concentrations after noribogaine dosing: 3 to 4 h

## CC[C@H]1CC2C[C@H]3c4[nH]c5ccc(O)cc5c4CCN(C2)C13 [Noribogaine]
[2]; 60 mg treatment group
  Headaches: frequent
[2]; 120 mg and 180 mg dose groups
  Headaches: attenuated
[2]; opioid-dependent participants, single 60, 120 or 180 mg
  adverse effects observed: Few adverse effects
[2]; treatment emergent AE, 60 mg, N = 6
  Dry Mouth: 0
[3]; ANOVA after adjusting for baseline, 3-60 mg
  pupil diameter, each dose group compared with placebo: no statistically significant differences
[3]; healthy volunteers, single oral 3-60 mg
  pupillary constriction: no evidence of pupillary constriction
[4]
  VAS pain scores, each dose group compared with placebo: no statistically significant differences
  duration of hand immersion, each dose group compared with placebo: no statistically significant differences
[5]; 1 mg/L
  anxiolytic-like effects (manual NTT endpoints): statistically significant anxiolytic-like effects
[5]; 1 mg/L, NTT, unaltered turn angle
  circling behavior: did not evoke circling behavior
[5]; 1 mg/L, acute
  Anxiogenic-like and locomotor effects of repeated nicotine withdrawal: fully reversed
[5]; 1 mg/L, computer-generated NTT endpoints
  motor activity (distance traveled and velocity measures): unaltered motor activity
[5]; 1 mg/L, dose did not promote locomotor effects
  efficacy in pilot experiment: sub-maximal efficacy
[5]; [10]
  latency to top: statistically significant decrease
  transitions to top: statistically significant increase
  transitions to upper half of tank per minute (habituation): reached values equivalent to the control group at 5 minutes
[5]; [11]
  Average velocity: corrected by noribogaine treatment
  Freezing bouts' frequency and duration: reversed that effect in nicotine withdrawal fish and re-established levels to that of the control fish group
  Total distance traveled (anxiety-like response of withdrawal group): corrected by treatment with noribogaine
  absolute change in direction (rotation angle): no difference observed
  absolute change in direction of movement per distance moved (FIG. 12, panel G), reduced in withdrawal group: corrected by treatment with noribogaine
  freezing bouts frequency: re-established the high bouts due to nicotine withdrawal toward control levels
  high-mobility number of events: increase in high-mobility number of events
  increase of hi-mobility duration and frequency (factor): ~2
  mobility and immobility endpoints (durations, frequency): reestablished mobility (mobile and immobile) durations and frequency in nicotine treated fish to control values
  relative change in direction; absolute change in direction of movement per distance moved (FIG. 12, panels E and F): no change was seen
[5]; nicotine withdrawal + 1 mg/L, NTT, listed as noribogaine
  mobility and immobility endpoints (durations, frequency): control-equivalent values for mobility and immobility endpoints
[5]; nicotine withdrawal + 1 mg/L, over chronic nicotine and nicotine withdrawal groups
  turning rotation rate: slight increase in turning rotation rate
[5]; [12]
  average entry duration: increased average entry duration
  time spent in top: Statistically significant increases in the duration of time spent in the top(s) portion of the tank
[1]; healthy volunteers, single oral 30 mg noribogaine, fasted, plasma, mean (SD), n = 6, listed as noribogaine free base
  Tmax: 1.75 h
[1]; [13]
  Mean half-life estimates: 28 to 50 h
  time of peak concentrations after oral dosing: 2 to 3 h
[1]; single dose of 3 mg noribogaine free base
  mean AUC/24 hr: 3.1 ng/mL
[1]; single dose of 10 mg noribogaine free base
  mean AUC/24 hr: 10.6 ng/mL
[1]; single dose of 30 mg noribogaine free base
  mean AUC/24: 29.2 ng/mL
[1]; single dose of 60 mg noribogaine free base
  mean AUC/24: 61 ng/mL
[1]; single oral 3-60 mg
  dose dependence of Cmax and AUC: increased linearly with dose
[6]; 120 mg
  withdrawal symptoms (COWS, OOWS, SOWS), first six hours following dosing: generally experienced fewer withdrawal symptoms than the other patients
[6]; 60, 120, 180 mg, first six hours following dosing
  withdrawal symptoms (COWS, OOWS, SOWS), noribogaine versus placebo: Patients administered placebo generally experienced more withdrawal symptoms than patients who were administered noribogaine
[6]; single 180 mg dose
  average time to resumption of opioids (OST): still longer than untreated patients
[7]; 3 mg dose group
  number of adverse events reported: five adverse events were reported by two subjects
[7]; 10 mg dose group
  number of adverse events reported: one adverse event was reported by single subjects
[7]; 30 mg dose group
  number of adverse events reported: one adverse event was reported by single subjects
[7]; all dose groups, all resolved prior to study completion
  intensity of adverse events: mild-moderate intensity
[7]; healthy volunteers, 3 mg dose
  Adverse events: Mild: Dizziness; also recorded: Epistaxis; also recorded: Headache; also recorded: Back pain
  Adverse events: Moderate: Headache
[7]; healthy volunteers, 10 mg dose
  Adverse events: Mild: Headache
[7]; healthy volunteers, 30 mg dose
  Adverse events: Mild: Headache
[7]; healthy volunteers, 3-60 mg, at any time
  QTcF values: ≤ 500 ms
[7]; one subject, 10 mg, single increase at 24 hours post-dosing
  increase in QTcF: > 60 ms
[8]
  dose dependence of maximum serum concentration (Cmax): increased in a dose-dependent manner
[9]
  QT interval prolongation (ΔQTcl): dose-dependent increase in QT interval prolongation
Nicotine dependent rats; 12.5 mg/kg orally 2 hours prior to test, P<0.10 vs vehicle
  nicotine infusion: A trend of depression of nicotine infusions
Nicotine dependent rats; 25 mg/kg orally 2 hours prior to test, P<0.001 vs vehicle
  nicotine infusion: significantly depressed nicotine infusion
Nicotine dependent rats; 50 mg/kg orally 2 hours prior to test, P<0.001 vs vehicle
  nicotine infusion: significantly depressed nicotine infusion
Nicotine dependent rats
  inactive lever press during nicotine self-administration: no significant main effect of treatment
